Measurements taken from patent publication US12637499B2, “Adrenomedullin analog, method for producing the same, and pharmaceutical use thereof” (priority 2020, dated 2026).
Where a SMILES comes first, the peptide text is derived from it. Bridges are numbered along the chain shown (N, C = ends).

Experiments:
in vitro = details: for stability in reaction mixture with human serum: Experiment VIII, 10^−7 M, 37° C., 4 hours after the beginning of reaction
Experimental: The stabilities of the AM analog peptides in serum were evaluated with the same procedure as in Experiment I except the following procedure. […] A reaction mixture containing 4 μL of phosphate buffer, 20 μL of human serum (Sigma-Aldrich Co. LLC, USA), and 14 μL of water was prepared. To the reaction mixture, 2 μL of AM or an AM analog peptide (2×10^−6 M, final concentration: 10^−7 M) was added, and reaction was initiated at 37° C. The reaction was terminated by addition of 160 μL of ELISA buffer to the reaction mixture 0, 1, or 4 hours after the beginning of reaction. […] In the figure, the abscissa represents reaction time (hr), and the ordinate represents concentration in serum of AM or an AM analog (%) represented as relative values to concentration of AM or an AM analog at the beginning of reaction (i.e., 0 hours after the beginning of reaction).

in vivo = details: for detection in rat plasma after subcutaneous administration: 50 nmol/kg subcutaneous, Experiment X; for Cmax: male, Wistar, rat, in vivo, sc, 50 nmol/kg
Experimental: Seven-week-old male Wistar rats were prepared, and grown with normal feeds. To determine plasma AM concentrations, 50 nmol/kg of AM or an AM analog was subcutaneously administered. A peripheral blood sample was collected from the tail vein into a Kantan tube® (containing heparin Na, Eiken Chemical Co., Ltd., Tochigi, Japan) at predetermined times (0, 15, 30, 60, and 120 minutes after administration). The tube was centrifuged at 2,000×g. Plasma was collected from the tube, and transferred into a test tube (containing 21 μg of aprotinin and 0.3 mg of EDTA-2Na) and stored. […] In the figure, the abscissa represents elapsed time after subcutaneous administration (hr), and the ordinate represents concentration in plasma of AM or an AM analog (pM). In addition, maximum concentrations in blood (Cmax) of AM or the AM analogs in rat plasma after subcutaneous administration were calculated.

[1] = target: T1, AM type 1 receptor (AMI receptor) (Homo sapiens, UniProt O60895+Q16602); test: Intracellular cAMP production in HEK293 cells stably expressing AM type 1 receptor (Experiments V and IX); type: cell-based; details: for intracellular cAMP concentration-increasing activity: Experiment IX, addition at 10^−9 M or 10^−8 M, HEK293 cells
T1 construct: expressed in transfected cells; medium contains hygromycin B and Geneticin
T1 sequence (Q16602 23-461): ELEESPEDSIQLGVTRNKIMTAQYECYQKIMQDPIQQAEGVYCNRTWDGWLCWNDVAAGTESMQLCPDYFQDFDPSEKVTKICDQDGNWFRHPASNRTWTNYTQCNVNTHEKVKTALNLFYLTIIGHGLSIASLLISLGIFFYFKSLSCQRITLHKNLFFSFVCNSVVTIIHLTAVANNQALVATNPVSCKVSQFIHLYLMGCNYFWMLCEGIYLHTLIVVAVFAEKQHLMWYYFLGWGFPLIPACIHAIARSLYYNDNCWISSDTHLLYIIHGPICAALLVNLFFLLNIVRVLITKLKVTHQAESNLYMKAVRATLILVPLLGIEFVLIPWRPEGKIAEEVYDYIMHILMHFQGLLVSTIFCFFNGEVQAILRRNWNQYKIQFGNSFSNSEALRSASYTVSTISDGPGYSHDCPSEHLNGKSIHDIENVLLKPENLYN
T1 sequence (O60895 43-175): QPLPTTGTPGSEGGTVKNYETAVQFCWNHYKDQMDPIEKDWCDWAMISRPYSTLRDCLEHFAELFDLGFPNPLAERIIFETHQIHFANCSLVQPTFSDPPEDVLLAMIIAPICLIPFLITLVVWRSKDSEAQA
From the text: The adrenomedullin activity exerted by AM, shown above with examples, will be exerted via increased concentration of intracellular cAMP in normal cases. Thus, the increased concentration of intracellular cAMP can be considered as an index of the adrenomedullin activity of the compound according to the aspect. In each aspect of the invention, the effect of increasing concentration of intracellular cAMP can be evaluated, for example, by adding a target compound to a cultured cell line (HEK293 cell line) caused to stably express an AM type 1 receptor (AMI receptor) and measuring the amount of intracellular cAMP produced.
The physiological effect of AM is known to be exerted via increase in the concentration of intracellular cAMP (see Kitamura K et al., Biochem Biophys Res Commun, 30 Apr. 1993, Volume 192, Issue 2, pp. 553-560). Accordingly, each AM analog was added to a cultured cell line (HEK293 cell line) caused to stably express an AM type 1 receptor (AMI receptor), and the amount of intracellular cAMP produced was measured. HEK293 cells were cultured in Dulbecco's modified Eagle's medium (with 10% fetal bovine serum, 100 U/ml penicillin G, […] streptomycin, 0.25 mg/ml amphotericin B, […] hygromycin B, and […] Geneticin) in a fibronectin-coated 24-well plate (Thermo Fisher Scientific) (under 37° C., humidified, 5% CO2 conditions). After culturing for 3 days, 90%-confluent cells with accumulation of intracellular cAMP stimulated were subjected to experiment. The medium was exchanged with Hanks's balanced salt solution containing 20 mM 4-(2-hydroxyethyl)-1-piperazineethanesulfonic acid and 0.1% bovine serum albumin, AM or an AM analog was added to the cells in the presence of 0.5 mM isobutylmethylxanthine (IBMX), and the cells were incubated at 37° C. for 15 minutes. The reaction was terminated by addition of cell lysis buffer. Then, the amount of intracellular cAMP produced in the HEK293 cells of each well was measured using an ELISA kit for cAMP measurement (GE Healthcare Japan Corp., #RPN2251). […] In the figure, the abscissa represents logarithms of concentration of AM or an AM analog added (M), and the ordinate represents amounts of intracellular cAMP produced in HEK293 cells stably expressing an AMI receptor (fmol/well).
In the figure, the abscissa represents logarithms of concentration of AM or an AM analog added (M), and the ordinate represents amounts of intracellular cAMP produced in HEK293 cells stably expressing an AMI receptor (fmol/ml).

In the case of `CC[C@H](C)[C@H](NC(=O)[C@H](CCC(N)=O)NC(=O)[C@H](Cc1c[nH]cn1)NC(=O)[C@H](C)NC(=O)[C@H](CC(C)C)NC(=O)[C@H](CCCCN)NC(=O)[C@H](CCC(N)=O)NC(=O)[C@@H](NC(=O)[C@@H](NC(=O)[C@@H]1CSSC[C@H](NC(=O)CNC(=O)[C@H](Cc2ccccc2)NC(=O)[C@@H](N)CO)C(=O)N[C@@H](CCCNC(=N)N)C(=O)N[C@@H](Cc2ccccc2)C(=O)NCC(=O)N[C@@H]([C@@H](C)O)C(=O)N1)[C@@H](C)O)C(C)C)C(=O)N[C@@H](Cc1ccc(O)cc1)C(=O)N[C@@H](CCC(N)=O)C(=O)N[C@@H](Cc1ccccc1)C(=O)N[C@H](C(=O)N[C@@H](CC(=O)O)C(=O)N[C@@H](CCCCN)C(=O)N[C@@H](CC(=O)O)C(=O)N[C@@H](CCCCN)C(=O)N[C@@H](CC(=O)O)C(=O)N[C@@H](CC(N)=O)C(=O)N[C@H](C(=O)N[C@@H](C)C(=O)N1CCC[C@H]1C(=O)N[C@@H](CC(=O)O)C(=O)N[C@@H](CO)C(=O)N[C@@H](CCCCN)C(=O)N[C@H](C(=O)N[C@@H](CO)C(=O)N1CCC[C@H]1C(=O)N[C@@H](CCC(N)=O)C(=O)NCC(=O)N[C@@H](Cc1ccc(O)cc1)C(N)=O)[C@@H](C)CC)C(C)C)[C@@H](C)O` [[Asp-44]hAM(13-52), SFGCRFGTCTVQKLAHQIYQFTDKDKDNVAPDSKISPQGY-CONH2] (H-SFGCRFGTCTVQKLAHQIYQFTDKDKDNVAPDSKISPQGY-NH2; disulfide 4-9), the “stability in reaction mixture with human serum” value (“stability in reaction mixture” for short) (in vitro) is reported as “stable”.
In the case of `CC[C@H](C)[C@H](NC(=O)[C@H](CCC(N)=O)NC(=O)[C@H](Cc1c[nH]cn1)NC(=O)[C@H](C)NC(=O)[C@H](CC(C)C)NC(=O)[C@H](CCCCN)NC(=O)[C@H](CCC(N)=O)NC(=O)[C@@H](NC(=O)[C@@H](NC(=O)[C@@H]1CSSC[C@H](NC(=O)CNC(=O)[C@H](Cc2ccccc2)NC(=O)[C@@H](N)CO)C(=O)N[C@@H](CCCNC(=N)N)C(=O)N[C@@H](Cc2ccccc2)C(=O)NCC(=O)N[C@@H]([C@@H](C)O)C(=O)N1)[C@@H](C)O)C(C)C)C(=O)N[C@@H](Cc1ccc(O)cc1)C(=O)N[C@@H](CCC(N)=O)C(=O)N[C@@H](Cc1ccccc1)C(=O)N[C@H](C(=O)N[C@@H](CC(=O)O)C(=O)N[C@@H](CCCCN)C(=O)N[C@@H](CC(=O)O)C(=O)N[C@@H](CCCCN)C(=O)N[C@@H](CC(=O)O)C(=O)N[C@@H](CC(N)=O)C(=O)N[C@H](C(=O)N[C@@H](C)C(=O)N1CCC[C@H]1C(=O)NCC(=O)N[C@@H](CO)C(=O)N[C@@H](CCCCN)C(=O)N[C@H](C(=O)N[C@@H](CO)C(=O)N1CCC[C@H]1C(=O)N[C@@H](CCC(N)=O)C(=O)NCC(=O)N[C@@H](Cc1ccc(O)cc1)C(N)=O)[C@@H](C)CC)C(C)C)[C@@H](C)O` [[Gly-44]hAM(13-52), SFGCRFGTCTVQKLAHQIYQFTDKDKDNVAPGSKISPQGY-CONH2] (H-SFGCRFGTCTVQKLAHQIYQFTDKDKDNVAPGSKISPQGY-NH2; disulfide 4-9), the “detection in rat plasma after subcutaneous administration” value (in vivo) is reported as “detected in rat plasma 15 minutes after administration”, the Cmax (in vivo) is reported as 0.76 nM and the “stability in reaction mixture” value (in vitro) is reported as “stable”. The EC50 [1] was 11 nM and the “intracellular cAMP concentration-increasing activity” value [1] was “approximately equivalent to that of hAM(1-52) or hAM(13-52)”.
With `CC[C@H](C)[C@H](NC(=O)[C@H](CCC(N)=O)NC(=O)[C@H](Cc1c[nH]cn1)NC(=O)[C@H](C)NC(=O)[C@H](CC(C)C)NC(=O)[C@H](CCCCN)NC(=O)[C@H](CCC(N)=O)NC(=O)[C@@H](NC(=O)[C@@H](NC(=O)[C@@H]1CSSC[C@H](NC(=O)CNC(=O)[C@H](Cc2ccccc2)NC(=O)[C@@H](N)CO)C(=O)N[C@@H](CCCNC(=N)N)C(=O)N[C@@H](Cc2ccccc2)C(=O)NCC(=O)N[C@@H]([C@@H](C)O)C(=O)N1)[C@@H](C)O)C(C)C)C(=O)N[C@@H](Cc1ccc(O)cc1)C(=O)N[C@@H](CCC(N)=O)C(=O)N[C@@H](Cc1ccccc1)C(=O)N[C@H](C(=O)N[C@@H](CC(=O)O)C(=O)N[C@@H](CCCCN)C(=O)N[C@@H](CC(=O)O)C(=O)N[C@@H](CCCCN)C(=O)N[C@@H](CC(=O)O)C(=O)N[C@@H](CC(N)=O)C(=O)N[C@H](C(=O)N[C@@H](C)C(=O)N1CCC[C@H]1C(=O)N[C@@H](Cc1ccccc1)C(=O)N[C@@H](CO)C(=O)N[C@@H](CCCCN)C(=O)N[C@H](C(=O)N[C@@H](CO)C(=O)N1CCC[C@H]1C(=O)N[C@@H](CCC(N)=O)C(=O)NCC(=O)N[C@@H](Cc1ccc(O)cc1)C(N)=O)[C@@H](C)CC)C(C)C)[C@@H](C)O` [[Phe-44]hAM(13-52), SFGCRFGTCTVQKLAHQIYQFTDKDKDNVAPFSKISPQGY-CONH2] (H-SFGCRFGTCTVQKLAHQIYQFTDKDKDNVAPFSKISPQGY-NH2; disulfide 4-9) the “detection in rat plasma after subcutaneous administration” value (in vivo) was “detected in rat plasma 15 minutes after administration”, the Cmax (in vivo) was 0.323 nM and the “stability in reaction mixture” value (in vitro) was “stable”. The EC50 [1] was 5.13 nM and the “intracellular cAMP concentration-increasing activity” value [1] was “approximately equivalent to that of hAM(1-52) or hAM(13-52)”.
For `CC[C@H](C)[C@H](NC(=O)[C@H](CCC(N)=O)NC(=O)[C@H](Cc1c[nH]cn1)NC(=O)[C@H](C)NC(=O)[C@H](CC(C)C)NC(=O)[C@H](CCCCN)NC(=O)[C@H](CCC(N)=O)NC(=O)[C@@H](NC(=O)[C@@H](NC(=O)[C@@H]1CSSC[C@H](NC(=O)CNC(=O)[C@H](Cc2ccccc2)NC(=O)[C@@H](N)CO)C(=O)N[C@@H](CCCNC(=N)N)C(=O)N[C@@H](Cc2ccccc2)C(=O)NCC(=O)N[C@@H]([C@@H](C)O)C(=O)N1)[C@@H](C)O)C(C)C)C(=O)N[C@@H](Cc1ccc(O)cc1)C(=O)N[C@@H](CCC(N)=O)C(=O)N[C@@H](Cc1ccccc1)C(=O)N[C@H](C(=O)N[C@@H](CC(=O)O)C(=O)N[C@@H](CCCCN)C(=O)N[C@@H](CC(=O)O)C(=O)N[C@@H](CCCCN)C(=O)N[C@@H](CC(=O)O)C(=O)N[C@@H](CC(N)=O)C(=O)N[C@H](C(=O)N[C@@H](C)C(=O)N1CCC[C@H]1C(=O)N[C@@H](CCCNC(=N)N)C(=O)N1CCC[C@H]1C(=O)N[C@@H](CCCCN)C(=O)N[C@H](C(=O)N[C@@H](CO)C(=O)N1CCC[C@H]1C(=O)N[C@@H](CCC(N)=O)C(=O)NCC(=O)N[C@@H](Cc1ccc(O)cc1)C(N)=O)[C@@H](C)CC)C(C)C)[C@@H](C)O` [[Pro-45]hAM(13-52), SFGCRFGTCTVQKLAHQIYQFTDKDKDNVAPRPKISPQGY-CONH2] (H-SFGCRFGTCTVQKLAHQIYQFTDKDKDNVAPRPKISPQGY-NH2; disulfide 4-9), the remaining at 4 h (in vitro; human, serum) was roughly 60%.
